Assay [1] deals with T1, Heat shock factor protein 1 (Mus musculus, UniProt P38532).
T1 sequence (P38532 whole entry): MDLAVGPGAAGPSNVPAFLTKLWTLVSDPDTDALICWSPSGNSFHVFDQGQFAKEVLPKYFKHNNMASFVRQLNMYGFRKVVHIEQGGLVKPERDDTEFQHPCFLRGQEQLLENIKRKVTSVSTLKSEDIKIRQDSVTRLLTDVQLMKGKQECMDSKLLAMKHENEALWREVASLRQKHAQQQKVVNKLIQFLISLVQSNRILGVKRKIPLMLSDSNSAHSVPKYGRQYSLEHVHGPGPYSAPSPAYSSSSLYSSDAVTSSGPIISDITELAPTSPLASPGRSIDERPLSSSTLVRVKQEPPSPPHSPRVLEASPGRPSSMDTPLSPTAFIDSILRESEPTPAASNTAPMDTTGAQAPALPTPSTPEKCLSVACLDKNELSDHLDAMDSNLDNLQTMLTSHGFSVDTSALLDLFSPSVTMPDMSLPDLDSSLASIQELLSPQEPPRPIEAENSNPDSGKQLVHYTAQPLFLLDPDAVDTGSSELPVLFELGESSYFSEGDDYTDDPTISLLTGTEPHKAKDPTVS
As to the kind of experiment: enhancement of HSF1-driven luciferase signal – cell-based, NIH3T3, luminescence, dose retest, confirmation (AID 435004).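 Note: stress induced by proteasome inhibitor MG132 added 30 min after compound; luciferase reporter driven by HSF1 response element in NIH3T3 cells; actives raise luminescence as potentiators of the MG132 stress response.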 The assay is classed as functional.

The nature of assay [2]: Luminescence Cell-Based Dose Confirmation HTS to Identify Activators of 5'UTR Stem-Loop Driven Alpha-Synuclein mRNA Translation in H4 Neuroglioblastoma Cells. [Related pubchem assays: 1829 (Project Summary), 1814 (Primary HTS)]. The assay is classed as functional.
For a further assay, the system named is H4. Kind of assay: Luminescence Cell-Based Dose Response HTS to Identify Activators of 5'UTR Stem-Loop Driven Prion Protein mRNA Translation in H4 Neuroglioblastoma Cells. [Related pubchem assays: 1829 (Project Summary), 1814 (Primary HTS)]. The assay is classed as functional. The settings on record: Homo sapiens.
Assay [3] is described as follows: Luminescence Cell-Based Dose Response HTS to Identify Activators of Luciferase Translation or Activity in H4 […] Cells. [Related pubchem assays: 1829 (Project Summary), 1814 (Primary HTS)]. The assay is classed as functional.
A short description of assay [4]: NIH-3T3 fibroblast cytotoxicity, dose response, cytotoxicity control, cell-based, fluorescence, Alamar Blue, secondary assay (AID 2327).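 Note: NIH-3T3 mouse fibroblasts cultured with fluconazole at 8 µg/mL.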 The assay is classed as functional. In general terms: The colour change of resazurin is a common sign of viable cells or microbes.
Assay [5] relates to Streptococcus sp. 'group A'. Kind of assay: Streptococcus pyogenes SK(-)GAS viability under kanamycin – luminescence, BacTiterGlo, confirmation, counter-screen for streptokinase expression inhibitor project, dose response (AID 1900). The assay is classed as functional, organism-based.
In another assay the test system is Streptococcus. Kind of assay: GAS UMAA2166 growth inhibition – luminescence, BacTiterGlo, counter-screen for streptokinase expression inhibitor project, dose response (AID 1915).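 Note: potency for reduction of bacterial viability or growth.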 The assay is classed as functional, organism-based. On the technique in general: The purpose of a counterscreen is to sort out artefacts and off-target activity.
The target in assay [6] is T1, Heat shock factor protein 1. Kind of assay: decrease of HSF1-responsive luciferase luminescence – cell-based, NIH3T3, dose retest, confirmation (AID 2382).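 Note: NIH3T3 fibroblasts with HSF1-driven luciferase reporter stressed by proteasome inhibitor MG132; luminescence from HSF1-driven luciferase expression after 8 hours of MG132 stress.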 The assay is classed as functional.
For assay [7], the target named is T2, Corticotropin-releasing factor receptor 2/Corticotropin-releasing factor-binding protein (Homo sapiens, UniProt P24387+Q13324).
T2 sequence (Q13324 whole entry): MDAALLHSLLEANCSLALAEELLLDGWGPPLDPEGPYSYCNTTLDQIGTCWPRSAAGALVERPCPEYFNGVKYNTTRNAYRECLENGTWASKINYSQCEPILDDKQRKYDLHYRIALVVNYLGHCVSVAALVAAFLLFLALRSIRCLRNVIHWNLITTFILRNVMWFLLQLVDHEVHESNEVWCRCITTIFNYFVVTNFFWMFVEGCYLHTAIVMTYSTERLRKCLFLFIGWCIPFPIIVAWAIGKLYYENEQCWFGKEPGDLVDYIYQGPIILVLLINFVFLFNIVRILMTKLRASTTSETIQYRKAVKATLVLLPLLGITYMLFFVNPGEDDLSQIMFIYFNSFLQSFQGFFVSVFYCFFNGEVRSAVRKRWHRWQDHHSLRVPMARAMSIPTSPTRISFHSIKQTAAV
T2 sequence (P24387 whole entry): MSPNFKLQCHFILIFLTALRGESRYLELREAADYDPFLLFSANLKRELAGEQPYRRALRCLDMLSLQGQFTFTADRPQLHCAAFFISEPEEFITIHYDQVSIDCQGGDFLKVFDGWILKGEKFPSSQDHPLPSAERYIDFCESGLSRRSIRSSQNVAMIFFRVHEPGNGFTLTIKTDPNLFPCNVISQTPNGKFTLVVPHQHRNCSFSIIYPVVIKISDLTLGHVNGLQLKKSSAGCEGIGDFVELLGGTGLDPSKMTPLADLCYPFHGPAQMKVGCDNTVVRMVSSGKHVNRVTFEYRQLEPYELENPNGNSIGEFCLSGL
As to the kind of experiment: activators of CRF receptor 2 with binding protein – uHTS hits, confirmation (AID 602473). Conditions: read-out: EC50_Mean. The assay is classed as functional.

The source made the active and inactive calls. Cut-off read from the data, not from the text of the source: actives have a measured EC50 and inactives only a lower limit.

`C=CCSC1=C(C#N)C(c2cccc(OC)c2)CC(=O)N1` (stereo not given): in assay [1], the EC50 is > 260 µM (inactive).
`CC(=O)c1ccc(N2CCN(C(=O)c3[nH]nc4ccccc34)CC2)cc1`: the EC50 in [1] is > 260 µM (inactive).
Consider `CC(=O)N1c2ccc(S(=O)(=O)N3CCC(C(=O)NCc4ccccc4Cl)CC3)cc2CC1C` (stereo not given), for which the EC50 (in [2]; in the assay with H4; in [3]) was > 120 µM (not active) in each case.
Turning to `Cc1cc(C)n(-c2nc3ccccc3nc2N2CCN(C(=O)c3ccc(F)cc3)CC2)n1`, the EC50 in assay [1] is > 260 µM (inactive).
The same measure, in the same setting: with `COc1ccc(CN(C)Cc2c(O)ccc3ccccc23)cc1` the figure was 38.8 µM (active).
Consider `Cc1ccc2nsnc2c1NC(=O)COc1ccccc1F`, for which the EC50 in assay [4] is > 150 µM (inconclusive).
For `CCC1Oc2ccc(C)cc2N(Cc2cccc(C)c2)C1=O` (stereo not given), in assay [1], the EC50 was > 260 µM (inactive).
The same measure, in the same setting: the figure for `COc1ccc(NC(=O)C(NCC(C)C)c2ccccc2)cc1Cl` (stereo not given) is > 260 µM (inactive).
For the compound `CN(Cc1ccc(OC(F)F)cc1)Cc1nc(O)c2cc(Br)cc(Br)c2n1`, the EC50 in assay [5] is 4.31 µM (active); in the assay on Streptococcus it was > 150 µM (not active).
For the compound `CCCSc1nnc2n(-c3ccccc3OC)c(=O)c3c4c(sc3n12)CCC4`, in assay [1], the EC50 is > 260 µM (inactive).
In the case of `CCn1c(SCC(=O)Nc2ccc(C(C)=O)cc2)nc2nc3c(cc2c1=O)COC(C)(C)C3`, the EC50 in [2] was > 120 µM (not active); in the assay on H4 it was 12.8 µM (active); in assay [3], 32.9 µM (active).
`CCOc1ccc(NC(=O)C(S)=NC2CCCCC2)cc1`: the EC50 in assay [2] is 61.6 µM (active); in the assay on H4 it was 11 µM (active); in [3], 21.1 µM (active).
For `S=C(c1cn(Cc2ccc(Br)cc2)c2ccccc12)N1CCOCC1`, the EC50 in assay [1] was > 260 µM (inactive).
Take `O=C(NN=C1C2CC3CC1CC(Cl)(C3)C2)c1ccccn1`: the EC50 (in [2]; with H4; in assay [3]) was > 120 µM (not active) throughout.
Consider `Nc1c(-c2ccsc2)cnc2ncnn12`, for which the EC50 in assay [1] is > 260 µM (inactive).
As to `CCOc1ccc(N2C(=O)/C(=C\NNC(=O)C3COc4ccccc4O3)c3ccccc3C2=O)cc1` (stereo not given), the EC50 in [5] is 1.63 µM (active); with Streptococcus, 5.75 µM (active).
In the case of `COC(=O)C1=CN(c2ccc(F)cc2)C=C(C(=O)OC)C1c1cccc(Br)c1`, the EC50 in assay [1] is > 260 µM (inactive).
Regarding `Cc1nc(C(=N)NOC(=O)Cc2ccccc2)no1`, the EC50 in [1] is > 260 µM (inactive).
Still for that read-out and setting: the figure for `CN=C(S)NCCC(c1ccccc1)c1ccccc1` is > 260 µM (inactive); for `CCOc1ccc(-n2c(=S)sc3c(O)nc(SCC(=O)NC(C)CC)nc32)cc1` (stereo not given) it is > 260 µM (inactive).
Turning to `COc1ccc(C(NC(=O)c2ccc(O)nc2)C(=O)Nc2ccc(C(C)C)cc2)cc1` (stereo not given), the EC50 is > 195 µM (not active) in assay [6] and > 53 µM (inactive) in assay [7].
Regarding `COC(=O)c1ccc(OC(=O)CCN2C(=O)C3CCCCC3C2=O)cc1` (stereo not given), in [1], the EC50 is > 260 µM (inactive).
The same measure, in the same setting: the figure for `C=CCn1c(C)cc(C(=O)CSc2nc(N)cc(N)n2)c1C` is > 260 µM (inactive).
Regarding `CC(C)CC1NC(=O)N(CC(=O)c2ccc3c(c2)OCCO3)C1=O` (stereo not given), the figures for the EC50 (in [2]; in the assay on H4; in assay [3]) were 0.298 µM (active), 6.39 µM (active) and 1.48 µM (active), respectively.
Consider `Cc1nn(CC(=O)c2ccccc2Cl)c(C)c1[N+](=O)[O-]`, for which the EC50 was 38.2 µM (active) in assay [2], 25.4 µM (active) with H4 and 15.8 µM (active) in assay [3].
Regarding `O=C(COc1ccccc1)NC(=S)Nc1cccc2cc(O)ccc12`, the EC50 in assay [1] was > 260 µM (inactive).
As to `CC1=NC(=O)C(N=Nc2cccc(O)c2)N1c1ccccc1` (stereo not given), the EC50 in [2] was 15.5 µM (active); with H4, 20.2 µM (active); in assay [3] it was 13.7 µM (active).
Turning to `CC(=O)N1CCc2cc(S(=O)(=O)NCCC(=O)Nc3ccc4c(c3)OCCO4)ccc21`, the results for the EC50 (in assay [2]; in the assay with H4; in assay [3]) were 17.4 µM (active), 25.6 µM (active) and 9.85 µM (active), respectively.
As for `Clc1ccc2c(c1)[C@H]1OCC[C@H]1[C@@H](c1ccco1)N2`, the EC50 in assay [2] is 19.9 µM (active); in the assay on H4 it was 9.48 µM (active); in assay [3], 10.9 µM (active).
On the same counts, the results for `COc1ccc(COc2cc(-c3cccc(OC)c3)nc3ccc(NC(=O)C(C)C)cc23)cc1` are > 120 µM (not active), > 120 µM (not active) and > 120 µM (not active).
On the same counts, the results for `Cc1cccc(CCNc2nc3ccc(C)cc3n3cnnc23)c1` are 0.258 µM (active), 7.16 µM (active) and 33.2 µM (active).
Consider `Nn1c(SCC(=O)N2CCOCC2)nnc1C1CC1`, for which, in assay [1], the EC50 is > 260 µM (inactive).
Consider `CCn1c(Cn2nnc(-c3ccccc3)n2)nnc1SCC(=O)Nc1ccc(C(C)=O)cc1`, for which the figures for the EC50 (in assay [2]; in the assay with H4; in assay [3]) were > 120 µM (not active), 16.1 µM (active) and 71.4 µM (active), respectively.
Turning to `Cc1ccc(-c2nc(-c3cccnc3)no2)c(C)c1`, the EC50 in assay [4] is > 150 µM (inactive).
On to `CCOC(=O)c1ccc(NC(=O)CCS(=O)(=O)c2ccc(Br)s2)cc1`, for which the EC50 in assay [1] is > 260 µM (inactive).
For `Cn1ncc2c(Nc3ccc(Br)cc3)nc(Nc3ccc(Br)cc3)nc21`, the EC50 was 1.01 µM (active) in assay [5] and 2.38 µM (active) in the assay with Streptococcus.
With `NC(=NOC(=O)c1cccc([N+](=O)[O-])c1)c1cccnc1`, the EC50 in assay [2] was 3.61 µM (active); in the assay on H4 it was > 120 µM (not active); in assay [3] it was 7.46 µM (inconclusive).
As for `COc1ccc(-c2nnc3ccc(SCC(=O)NCC4CCCO4)nn23)cc1` (stereo not given), the EC50 in assay [1] was > 260 µM (inactive).
Same read-out and setting: the figure for `Cc1ccc(C(=O)NNC(=O)c2ccccc2-n2cccc2)cc1` is > 260 µM (inactive).
On the same count and under the same terms, the figure for `CC(=O)Nc1ccc(N2C(=O)C3C4CC(=O)C(c5ccccc54)C3C2=O)cc1` (stereo not given) is > 260 µM (inactive).
`O=S(=O)(c1ccc(Cl)cc1)N1CCC2(CC1)OCCN2S(=O)(=O)c1cccs1`: the EC50 in assay [1] is 227 µM (active).
Take `COc1ccc(OC)c(S(=O)(=O)Nc2ccccc2O)c1`: in [1], the EC50 was > 260 µM (inactive).
As to `Cc1cccn2c(=O)c3cc(C#N)/c(=N\C(=O)c4cccnc4)n(CC4CCCO4)c3nc12` (stereo not given), the EC50 in assay [7] was > 53 µM (inactive).
As for `O=c1[nH]c2ccccc2c2cn(-c3ccccc3)nc12`, the EC50 in assay [1] is 126 µM (active).
In the case of `CC1(C)C2CC=C(/C=N/NC(=O)c3ccc(Cl)cc3)C1C2` (stereo not given), the EC50 in assay [2] is > 120 µM (not active); in the assay with H4, > 120 µM (not active); in assay [3], 12.4 µM (active).
As for `Cc1nn(-c2ccc(Cl)cc2)c(O)c1/C=N/n1c(C)nc2ccccc2c1=O`, the EC50 in assay [5] was 3.48 µM (active); in the assay on Streptococcus, 7.22 µM (active).
Take `CC/C(=N/Cc1ccc(Cl)c(Cl)c1)c1nc(-c2ccco2)oc1O`: the EC50 in assay [1] was 20 µM (active).

The values are drawn from ChEMBL document CHEMBL1201862, “PubChem BioAssay data set” (2004).
